Measured values from US6562632B1, “Reactive derivatives of sulforhodamine 101 with enhanced hydrolytic stability” (Molecular Probes, Inc., priority 1995, dated 2003).
Values joined by “and” are separate entries in the source; they are usually repeats but may differ in a detail not shown here. Equal entries are not always repeated.

How the values were obtained:
streptavidin (STR) = streptavidin (STR) (Streptomyces avidinii, UniProt P22629); assay: Protein labeling with reactive dye, degree of substitution on streptavidin; details: for Degree of Substitution: STR
Sequence of streptavidin (STR) (P22629 25-183, species assumed): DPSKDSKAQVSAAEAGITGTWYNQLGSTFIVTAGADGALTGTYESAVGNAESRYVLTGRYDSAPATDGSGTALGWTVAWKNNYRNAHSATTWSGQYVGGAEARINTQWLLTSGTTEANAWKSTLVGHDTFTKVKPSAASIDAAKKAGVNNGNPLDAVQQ
Description: Protein conjugates of sulforhodamine 101 are prepared using Compound 2 (Example 2). The degree of substitution achieved on the selected proteins (bovine serum albumin (BSA), goat anti-mouse IgG (GAM) or streptavidin (STR)) is then determined.
A fresh solution of the desired protein is prepared that is 10 mg protein/mL in 0.1 M sodium bicarbonate. The labeling reagent (Compound 2) is dissolved in DMF to give a concentration of 10 mg dye/mL. Predetermined amounts of the labeling reagent in DMF are slowly added to the protein solution with stirring. A molar ratio of 10 equivalents dye to equivalent of protein is typical, though the optimal amount varies with particular labeling reagent and protein being labeled. The reaction mixture is incubated at room temperature for one hour. The dye-protein conjugate is separated from free unreacted reagent by gel filtration on a CELLUFINE GH-25 column equilibrated in PBS. The initial, protein-containing colored band is collected from the column, and the degree of substitution is determined by measuring the absorbance of the conjugate at 595 nm, and calculating the degree of substitution using an extinction coefficient of 80,000 cm^−1M^−1 for the dye.
Dye conjugates are similarly prepared using SSC excepting that the protein solution is maintained at pH 9, and the labeling reaction is conducted at ice bath temperatures to minimize hydrolysis of the labeling reagent.

[1] = 90% DMF and 10% aqueous sodium bicarbonate; two hours of incubation; TLC
Description: Compound 2 and SSC are separately dissolved in solutions that are 90% DMF and 10% aqueous sodium bicarbonate. Each solution is analyzed using thin layer chromatography (TLC) as follows: An aliquot from each sample is diluted 1:100 in methanol and 1 μL of the resulting solution is spotted on a silica gel TLC plate and developed in 15% methanol in chloroform.

[2] = biological target: bovine serum albumin (BSA) (Bos taurus, UniProt P02769); assay: Protein labeling with reactive dye, degree of substitution on BSA; details: Dye:Protein Ratio 15
Sequence of bovine serum albumin (BSA) (P02769 25-607): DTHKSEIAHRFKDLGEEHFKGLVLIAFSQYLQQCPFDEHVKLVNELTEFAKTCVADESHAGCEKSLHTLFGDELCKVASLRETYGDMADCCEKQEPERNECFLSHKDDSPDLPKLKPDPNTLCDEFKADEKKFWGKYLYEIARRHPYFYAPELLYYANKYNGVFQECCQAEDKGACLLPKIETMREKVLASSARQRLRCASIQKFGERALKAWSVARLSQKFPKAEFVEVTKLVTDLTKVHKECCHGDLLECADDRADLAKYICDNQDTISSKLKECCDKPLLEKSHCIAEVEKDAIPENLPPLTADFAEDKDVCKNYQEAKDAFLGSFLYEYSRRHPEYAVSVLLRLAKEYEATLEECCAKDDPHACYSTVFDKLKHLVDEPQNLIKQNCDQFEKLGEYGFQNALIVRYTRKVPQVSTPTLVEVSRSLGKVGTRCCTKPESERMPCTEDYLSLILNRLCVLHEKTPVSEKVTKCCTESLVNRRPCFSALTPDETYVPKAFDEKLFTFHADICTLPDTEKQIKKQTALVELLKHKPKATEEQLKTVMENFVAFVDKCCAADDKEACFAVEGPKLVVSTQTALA
Description: A fresh solution of the desired protein is prepared that is 10 mg protein/mL in 0.1 M sodium bicarbonate. […] Predetermined amounts of the labeling reagent in DMF are slowly added to the protein solution with stirring. A molar ratio of 10 equivalents dye to equivalent of protein is typical, though the optimal amount varies with particular labeling reagent and protein being labeled. The reaction mixture is incubated at room temperature for one hour. The dye-protein conjugate is separated from free unreacted reagent by gel filtration on a CELLUFINE GH-25 column equilibrated in PBS. The initial, protein-containing colored band is collected from the column, and the degree of substitution is determined by measuring the absorbance of the conjugate at 595 nm, and calculating the degree of substitution using an extinction coefficient of 80,000 cm^−1M^−1 for the dye.

| Compound | Degree of Substitution (streptavidin (STR); Dye:Protein Ratio 1) | Degree of Substitution (streptavidin (STR); Dye:Protein Ratio 2.5) | Degree of Substitution (streptavidin (STR); Dye:Protein Ratio 5.5) | Degree of Substitution (streptavidin (STR); Dye:Protein Ratio 8.0) | Degree of Substitution (streptavidin (STR); Dye:Protein Ratio 10) | Degree of Substitution (streptavidin (STR); Dye:Protein Ratio 20) | Degree of Substitution (streptavidin (STR); Dye:Protein Ratio 30) | Decomposition in the presence of water [1] | Degree of Substitution [2] | Degree of substitution of the streptavidin conjugates used as immunoreagents (streptavidin (STR); two conjugates used in Example 24) |
| --- | --- | --- | --- | --- | --- | --- | --- | --- | --- | --- |
| O=C(CCCCCNS(=O)(=O)c1ccc(C2=c3cc4c5c(c3Oc3c2cc2c6c3CCCN6CCC2)CCC[N+]=5CCC4)c(S(=O)(=O)[O-])c1)ON1C(=O)CCC1=O [Compound 2] | 0.76 | 1.6 | 4.4 | 5.6 | 6.0 | 6.0 | 6.9 | 10-20% | 4.5 | – |
| streptavidin conjugates of SSC: two streptavidin conjugates prepared with SSC [reference compound] | – | – | – | – | – | – | – | – | – | 2.4 dyes per mole and 3.9 dyes per mole |
| sulfonyl chloride of sulforhodamine 101 [SSC, reference compound] | 0.066 | 1.2 | 2.4 | 3.0 | 3.9 | 4.9 | 5.1 | – | 3.2 | – |
